From patent US20220288001A1, “CREATINE FOR IMMUNOTHERAPY” (The Regents of the University of California, priority 2019, published 2022)
“Also recorded” adds a separate entry of the source.

Assays:
Format in all cases: cell-based, mouse
AMPK = assay: Western blot of AMPK and TCR signaling events in CD8 T cells with AICAR treatment
Procedure: In some other experiments, AICAR (5-aminoimidazole-4-carboxamide 1-β-D-ribofuranoside, Cat #A9978, Sigma-Aldrich), an AMPK activator, was reconstituted in DMSO and used to pretreat T cells for 30 minutes, at the concentration of 2 mM followed by 20 minutes of anti-CD3 stimulation for western blot analysis of TCR signaling events, or at the concentration of 250 μM followed by 16 hours of anti-CD3 stimulation for flow cytometry analysis of CD25 expression and ELISA analysis of IL-2 production.
Total protein was extracted using RIPA lysis buffer (Thermo Fisher Scientific) supplemented with a phosphatase inhibitor cocktail (Sigma-Aldrich) and a protease inhibitor cocktail (Roche) following the manufacturers' instructions. Nuclear protein was extracted using a Nuclear Protein Extraction Kit (Thermo Fisher Scientific) following the manufacturer's instructions, or using homemade reagents (10 mM HEPES pH 7.9, 10 mM KCl, 0.34 M sucrose, 10% glycerol, 1 mM DTT, 0.1% Triton X-100, 1.5 mM MgCl2 and protease inhibitor cocktail) following a previously established protocol (Ma et al., 2019). Protein concentration was measured by a BCA assay (Cat #23228 and Cat #1859078, Thermo Fisher Scientific). Equal amounts of protein were resolved on a 12% SDS-PAGE gel and then transferred to a PVDF membrane by electrophoresis. The following anti-mouse antibodies were purchased from Cell Signaling Technology and used to blot for the protein of interest: p-Zap-70 (cat #2705S; clone 99F2); Zap-70 (cat #2717S; clone Y319); p-Lck (cat #2751S; clone Y505); Lck (cat #2752S); p-c-Jun (cat #9261S; clone S63); NFAT (cat #4389S); NF-κB p65 (cat #8242P; clone D14E12); AMPK (cat #5831T; clone D5A2); p-AMPK (cat #2535T; clone 40H9), secondary anti-mouse (cat #7076P2), and secondary anti-rabbit (cat #7074P2). Anti-mouse CrT (SLC6A8) (cat #PA5-37060) was purchased from Thermo Fisher Scientific. β-Actin (Santa Cruz Biotechnology Inc.; cat #sc-69879; clone AC-15) was used as an internal control for total protein extracts, while Lamin A (Santa Cruz Biotechnology; cat #sc-71481; clone 4A58) was used as an internal control for nuclear protein extracts. Signals were visualized with autoradiography using an ECL system (Cat #RPN2232, Thermo Fisher Scientific). Data analysis was performed using ImageJ software (NIH).

CD8 T cells [1] = assay: CD8 T cell activation with AICAR treatment (CD25 flow cytometry, IL-2 ELISA); details: CrT-WT and CrT-KO CD8 T cells; AICAR 250 μM; anti-CD3 16 hours
Procedure: CD8 T cells were cultured in vitro in standard T cell culture medium comprising RPMI 1640 (Cat #10040, Corning), 10% FBS (Cat #F2442, Sigma), 1% Penicillin-Streptomycin-Glutamine (Cat #10378016, Gibco), 1% MEM Non-Essential Amino Acids Solution (Cat #11140050, Gibco), 1% HEPES (Cat #15630080, Gibco), 1% Sodium Pyruvate (100 mM) (Cat #11360070, Gibco), and 0.05 mM β -Mercaptoethanol (Cat #M3148, Sigma). Unless otherwise indicated, cells were seeded at 0.5×10^6 cells per well in 24-well plates and stimulated with plate-bound anti-CD3 (5 μg/ml) (clone 145-2C11), for up to 5 days. At indicated time point(s), cells were collected and analyzed for CrT mRNA expression using qPCR, for cell proliferation through cell counting, for viability through Annexin V/7-AAD staining followed by flow cytometry analysis, for surface activation marker (CD25) expression through surface staining followed by flow cytometry analysis, for effector molecule (Granzyme B, IL-2, and IFN-γ) production through intracellular staining followed by flow cytometry analysis, and for cytokine (IL-2 and IFN-γ) secretion through collecting cell culture supernatants followed by ELISA analysis. CrT protein expression and TCR signaling events were analyzed using western blot analysis. […]

TCR signaling = assay: Western blot of TCR signaling events in CrT-KO CD8 T cells with ATP supplementation; details: ATP 100 μM, restimulated with anti-CD3 30 minutes
Procedure: (§1) In some experiments, ATP (adenosine-5′-triphosphate disodium salt hydrate, Cat #A6419, Sigma-Aldrich) was reconstituted in sterile PBS and added to T cell culture (100 μM) for two to three days along with anti-CD3 stimulation, followed by analyzing T cell surface activation marker (CD25) expression using flow cytometry, and analyzing effector cytokine (IFN-γ) secretion using ELISA. In some experiments, T cells were stimulated with anti-CD3 for 48 hours, rested at 4° C. for 2 hours, then restimulated with anti-CD3 for 30 minutes in the presence or absence of ATP supplementation (100 μM) followed by analyzing TCR signaling events using western blot.
Total protein was extracted using RIPA lysis buffer (Thermo Fisher Scientific) supplemented with a phosphatase inhibitor cocktail (Sigma-Aldrich) and a protease inhibitor cocktail (Roche) following the manufacturers' instructions. Nuclear protein was extracted using a Nuclear Protein Extraction Kit (Thermo Fisher Scientific) following the manufacturer's instructions, or using homemade reagents (10 mM HEPES pH 7.9, 10 mM KCl, 0.34 M sucrose, 10% glycerol, 1 mM DTT, 0.1% Triton X-100, 1.5 mM MgCl2 and protease inhibitor cocktail) following a previously established protocol (Ma et al., 2019). Protein concentration was measured by a BCA assay (Cat #23228 and Cat #1859078, Thermo Fisher Scientific). […]

CD8 T cells [2] = assay: CD8 T cell activation in vitro with ATP supplementation (CD25 flow cytometry, IFN-γ ELISA); details: ATP 100 μM, anti-CD3
Procedure: CD8 T cells were cultured in vitro in standard T cell culture medium comprising RPMI 1640 (Cat #10040, Corning), 10% FBS (Cat #F2442, Sigma), 1% Penicillin-Streptomycin-Glutamine (Cat #10378016, Gibco), 1% MEM Non-Essential Amino Acids Solution (Cat #11140050, Gibco), 1% HEPES (Cat #15630080, Gibco), 1% Sodium Pyruvate (100 mM) (Cat #11360070, Gibco), and 0.05 mM β -Mercaptoethanol (Cat #M3148, Sigma). Unless otherwise indicated, cells were seeded at 0.5×10^6 cells per well in 24-well plates and stimulated with plate-bound anti-CD3 (5 μg/ml) (clone 145-2C11), for up to 5 days. At indicated time point(s), cells were collected and analyzed for CrT mRNA expression using qPCR, for cell proliferation through cell counting, for viability through Annexin V/7-AAD staining followed by flow cytometry analysis, for surface activation marker (CD25) expression through surface staining followed by flow cytometry analysis, for effector molecule (Granzyme B, IL-2, and IFN-γ) production through intracellular staining followed by flow cytometry analysis, and for cytokine (IL-2 and IFN-γ) secretion through collecting cell culture supernatants followed by ELISA analysis. CrT protein expression and TCR signaling events were analyzed using western blot analysis.
as §1
ELISA was performed for the detection of cytokines according to a BD Biosciences protocol. […] The absorbance was measured at 450 nm using an Infinite M1000 microplate reader (Tecan).

Compound | activation of NFAT (AMPK; CD8 T cells, AICAR 2 mM) | activation of Zap-70 (AMPK; CD8 T cells, AICAR 2 mM) | AP-1 transcription factor activation (c-Jun subunit) (AMPK; CrT-WT and CrT-KO CD8 T cells, AICAR 2 mM) | AMPK activation (AMPK; CrT-WT and CrT-KO CD8 T cells, AICAR 2 mM pretreatment 30 minutes) | cell surface activation marker expression (CD25) (CD8 T cells [1]) | effector cytokine production (IL-2) (CD8 T cells [1]) | TCR signaling deficiencies (TCR signaling) | effector cytokine IFN-γ production (CD8 T cells [2]; CrT-KO CD8 T cells, day 3) | surface activation marker CD25 expression (CD8 T cells [2]; CrT-KO CD8 T cells, day 3) | activation of CD8 T cells (CD25) (CD8 T cells [2]; CrT-WT CD8 T cells, 48 hours, disodium salt hydrate)
NC(=O)c1ncn([C@@H]2O[C@H](CO)[C@@H](O)[C@H]2O)c1N [AICAR, 5-aminoimidazole-4-carboxamide 1-β-D-ribofuranoside] | not affected | not affected | significant reduction | markedly activated AMPK | significant reduction | significant reduction | – | – | – | –
Nc1ncnc2c1ncn2[C@@H]1O[C@H](COP(=O)([O-])OP(=O)([O-])OP(=O)(O)O)[C@@H](O)[C@H]1O.O.[Na+].[Na+] [ATP, adenosine-5′-triphosphate disodium salt hydrate] | – | – | – | – | – | – | effectively rescued | enhanced production | increased expression | further increased the activation; also recorded: further enhanced the activation
